# Experimental data taken from the supplement of paper PMC11208160.
# Experiment: recombinant UMI read abundance after kanamycin selection (control-corrected) (log10(CPM+1)); higher = more efficient recombination; extreme values may be limits of the assay; sequences stand for … in AGTGCAGAGAAAATCGGCCAGTTTTCTCTGCCTGCAGTCCGCATGCCGTGGGACCCCTTGGGTTCTAACCTGTTGCCTAGATTTATGCAGCGGACTGCCTTTCTCCCAAAGTGATAAACCGG…AGGTTGGTTTCACT; site = the 11-nt donor
# Outline: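 Values, expressed as log10(CPM+1), derive from recombinant UMI counts converted to CPM, averaged across replicates and scaled by control-derived factors. Plating was with IPTG (0.07 mM) plus kanamycin or unselected, two replicates each. The screen pooled donor and donor-binding-loop pairs for the IS621 bridge recombinase in Escherichia coli.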
# 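Also: IS621 bridge recombinase in Escherichia coli cells against a fixed T5 target plasmid.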
row,Sequence,recombinant UMI read abundance (log10)
1,ACCTAGCCATGGACCGGTTTTCCCGGTAATCCGTATTTGCC (site CCCTAGCCTGG),0
2,ACCTAGCCATGGACCGGTTTTCCCGGTAATCCGTATTTGCC (site GCCTAGCCTGG),0
3,ACCTAGCCATGGACCGGTTTTCCCGGTAATCCGTATTTGCC (site TCCTAGCCTGG),0
4,ACCTAGGCATGGACCGGTTTTCCCGGTAATCCGTATTTGGG (site ACCTAGACTCC),0.00318
5,ACCTAGGCATGGACCGGTTTTCCCGGTAATCCGTATTTGGG (site ACCTAGCCTCC),0.0364
6,ACCTAGGCATGGACCGGTTTTCCCGGTAATCCGTATTTGGG (site ACCTAGGCTCC),0.0121
7,ACCTAGGCATGGACCGGTTTTCCCGGTAATCCGTATTTGGG (site ACCTAGTCTCC),0.0121
8,ACCTCGACATGGACCGGTTTTCCCGGTAATCCGTATTTGGG (site ACCTAGACTCC),0.0526
9,ACCTCGACATGGACCGGTTTTCCCGGTAATCCGTATTTGGG (site ACCTCGACTCC),0.00574
10,ACCTCGACATGGACCGGTTTTCCCGGTAATCCGTATTTGGG (site ACCTGGACTCC),0.0333
11,ACCTCGACATGGACCGGTTTTCCCGGTAATCCGTATTTGGG (site ACCTTGACTCC),0
12,ACCTCTACATGGACCGGTTTTCCCGGTAATCCGTATTTGTG (site ACATCTACTCA),0.014
13,ACCTCTACATGGACCGGTTTTCCCGGTAATCCGTATTTGTG (site ACCTCTACTCA),0.0203
14,ACCTCTACATGGACCGGTTTTCCCGGTAATCCGTATTTGTG (site ACGTCTACTCA),0.0131
15,ACCTCTACATGGACCGGTTTTCCCGGTAATCCGTATTTGTG (site ACTTCTACTCA),0.0231
16,ACCTGGACATGGACCGGTTTTCCCGGTAATCCGTATTTGGG (site ACCTAGACTCC),0.00306
17,ACCTGGACATGGACCGGTTTTCCCGGTAATCCGTATTTGGG (site ACCTCGACTCC),0.00694
18,ACCTGGACATGGACCGGTTTTCCCGGTAATCCGTATTTGGG (site ACCTGGACTCC),0.0305
19,ACCTGGACATGGACCGGTTTTCCCGGTAATCCGTATTTGGG (site ACCTTGACTCC),0.0114
20,ACCTTCGCATGGACCGGTTTTCCCGGTAATCCGTATTTGGC (site ACCTTCGCTGC),1.56
21,ACCTTTCCATGGACCGGTTTTCCCGGTAATCCGTATTTGCT (site ACCTTTCCTAG),0
22,ACGAAAACATGGACCGGTTTTCCCGGTAATCCGTATTTGTT (site ACGAAAACTAA),1.37
23,ACGAAACCATGGACCGGTTTTCCCGGTAATCCGTATTTGGA (site ACGAAACCTTC),0
24,ACGAAGGCATGGACCGGTTTTCCCGGTAATCCGTATTTGAC (site ACGAAGGCTGT),2.46
25,ACGAAGTCATGGACCGGTTTTCCCGGTAATCCGTATTTGCA (site ACGAAGTCTTG),3.09
26,ACGAAGTCATGGACCGGTTTTCCCGGTAATCCGTATTTGCA (site AGGAAGACTTG),0

row,Sequence,recombinant UMI read abundance (log10)
1,ACGACGGCATGGACCGGTTTTCCCGGTAATCCGTATTTGAA (site ACGACGGCTTT),1.59
2,ACGAGGTCATGGACCGGTTTTCCCGGTAATCCGTATTTGAC (site ACGAGGTCTGT),2.91
3,ACGCAACCATGGACCGGTTTTCCCGGTAATCCGTATTTGCT (site ACGCAACCTAG),0
4,ACGCCGTCATGGACCGGTTTTCCCGGTAATCCGTATTTGGT (site ACGCCGTCTAC),1.61
5,ACGCGAACATGGACCGGTTTTCCCGGTAATCCGTATTTGTC (site ACACGAACTGA),2.62
6,ACGCGAACATGGACCGGTTTTCCCGGTAATCCGTATTTGTC (site ACCCGAACTGA),0
7,ACGCGAACATGGACCGGTTTTCCCGGTAATCCGTATTTGTC (site ACGCGAACTGA),2.38
8,ACGCGAACATGGACCGGTTTTCCCGGTAATCCGTATTTGTC (site ACTCGAACTGA),0
9,ACGCGTACATGGACCGGTTTTCCCGGTAATCCGTATTTGGA (site ACGCGTACTTC),1.12
10,ACGGAGACATGGACCGGTTTTCCCGGTAATCCGTATTTGCA (site ACGGAGACTTG),2.64
11,ACGGAGACATGGACCGGTTTTCCCGGTAATCCGTATTTGCA (site AGGAAGACTTG),0
12,ACGGCCTCATGGACCGGTTTTCCCGGTAATCCGTATTTGGT (site ACGGCCTCTAC),2.1
13,ACGGCGTCATGGACCGGTTTTCCCGGTAATCCGTATTTGTC (site ACGGCGTCTGA),3.22
14,ACGGGGCCATGGACCGGTTTTCCCGGTAATCCGTATTTGCA (site ACGGGGCCTTG),0
15,ACGGTGCCATGGACCGGTTTTCCCGGTAATCCGTATTTGAA (site ACGGTGCCTTT),0.00366
16,ACGTACACATGGACCGGTTTTCCCGGTAATCCGTATTTGCA (site ACGTACACTTG),2.71
17,ACGTCATCATGGACCGGTTTTCCCGGTAATCCGTATTTGTT (site ACGTCATCTAA),1.69
18,ACGTCGACATGGACCGGTTTTCCCGGTAATCCGTATTTGTT (site ACGTCGACTAA),0.654
19,ACGTGAGCATGGACCGGTTTTCCCGGTAATCCGTATTTGCC (site ACGTGAGCTGG),2.7
20,ACGTGGACATGGACCGGTTTTCCCGGTAATCCGTATTTGTG (site ACGTGGACTCA),1.53
21,ACGTTAGCATGGACCGGTTTTCCCGGTAATCCGTATTTGAT (site ACGTTAGCTAT),2.62
22,ACTAAACCATGGACCGGTTTTCCCGGTAATCCGTATTTGCG (site ACTAAACCTCG),0
23,ACTAAATCATGGACCGGTTTTCCCGGTAATCCGTATTTGGC (site ACTAAATCTGC),0.218
24,ACTAATACATGGACCGGTTTTCCCGGTAATCCGTATTTGGC (site ACTAATACTGC),0.399
25,ACTAATACATGGACCGGTTTTCCCGGTAATCCGTATTTGGC (site CCTAATACTGC),0
26,ACTAATACATGGACCGGTTTTCCCGGTAATCCGTATTTGGC (site GCTAATACTGC),1.02
